Read-outs that look alike come from different tables or passages of the source.
Columns and labels:
[1] = system: Staphylococcus aureus ATCC 29213; experiment: Antibacterial bioassay (MIC), Staphylococcus aureus; assay type: cell-based; settings: CLSI
Procedure: (§1) Antibacterial bioassays. Susceptibility testing for the ESKAPE pathogens and Salmonella enterica LT2 was performed using a Kirby-Bauer method as outlined by the Clinical and Laboratory Standards Institute (CLSI). For rich media bioassays, Mueller Hinton Broth 2 (MH-2, Sigma-Aldrich, 90922) was used for all strains except 1% BHI was supplemented for Enterococcus faecalis ATCC 19433. For minimal media bioassays, glucose-MOPS minimal medium was used. Briefly, overnight bacterial cultures were sub-cultured and inoculated into 5 mL top agar (0.7% agar) for final concentration of 5×10^5 CFU/mL. Then, 20 μL of a compound 2-fold dilution series (200, 100, 50, 25, 12.5, 6.25 μM in water) was spotted on 6 mm diameter blank paper discs (BD BBL™ 231039). Control discs received 20 μL of 50 mg/mL kanamycin. Plates were incubated at 35° C. for 20-24 hours. […] Sensitivity of the IPTG-inducible phosphonate uptake strain WM6242 to pantaphos was tested using a disk diffusion assay. Plates containing growth medium were overlayed with 5 mL of top agar (0.7% agar) inoculated with 100 μL (OD600=0.8) of the phosphonate-specific E. coli indicator strain (WM6242) with or without addition of 1 mM IPTG. WM6242 is engineered with an IPTG-inducible, non-specific phosphonate uptake system (phnCDE). […]

HepG2 (liver cancer) = experiment: Cytotoxicity profiling (Alamar Blue), HepG2; assay type: cell-based, human
Procedure: (§2) FIG. 8. Cytotoxicity of pantaphos across various cancer cell lines. Assays were conducted as described (mBio. 2021 Feb. 2; 12(1):e03402-20), using the Alamar Blue method with 72-hour treatment using Raptinal ([…]) as Dead cell control; n=3. Cell seeding densities: CT26 (colon carcinoma) 2000 c/w; HOS (osteosarcoma) 2500 c/w; ES-2 (ovarian carcinoma), HCT-116 (colorectal carcinoma), A-549 (lung carcinoma), A-172 (glioblastoma), D54 (glioblastoma), U87 (glioblastoma), T98G (glioblastoma), SK-ML-28 (melanoma), MCF-7 (breast cancer), AM38 (glioblastoma) and MDA-MB-231 (breast cancer) 3000 c/w; U118MG (malignant glioma) 4000 c/w; HepG2 (liver cancer) 8000 c/w. c/w=cells per well. IC50 and Emax values shown in Table 6 were extracted from the raw data plotted in FIG. 8.
(§3) Cell culture cytotoxicity screening. The compounds were evaluated for their ability to kill cancer cell lines in culture, using HOS (osteosarcoma); ES-2 (ovarian cancer); HCT 116 (colon cancer); A549 (lung carcinoma); and A172 (glioma) cells. Human skin fibroblast cells (HFF-1) were also assessed. Cells were seeded (3000 cells well^−1 for ES-2, HCT 116, A549 and A172; 4000 cells well^−1 for HFF-1 and 2500 cells well^−1 for HOS) in a 96-well plate and allowed to attach overnight. Cells were treated with pantaphos in water. The concentrations of the tested compounds were 5 nM to 100 μM (1% water final; 100 μl well^−1). Raptinal (50 μM) was used as a dead control. On each plate, five technical replicates per compound were performed. 72 hours post-treatment, cell viability was assessed using the Alamar Blue method (http://www.bio-rad-antibodies.com/measuring-cytotoxicity-proliferation-spectrophotometry-fluorescence-alamarBlue.html). […] Conversion of Alamar Blue was measured with a plate reader (SpectraMax M3; Molecular Devices) by fluorescence (excitation wavelength: 555 nm; emission wavelength: 585 nm; cutoff 570 nm; autogain). Percentage death was determined by normalizing to water-treated cells and Raptinal-treated cells. […]

D54 (glioblastoma) = experiment: Cytotoxicity profiling (Alamar Blue), D54; assay type: cell-based; settings: Homo sapiens, 72-hour treatment
Procedure: as §2, with “IC50 and Emax values shown in Table 6 were extracted from the raw data plotted in FIG. 8.” left out
(§4) Cell culture cytotoxicity screening. The compounds were evaluated for their ability to kill cancer cell lines in culture, using HOS (osteosarcoma); ES-2 (ovarian cancer); HCT 116 (colon cancer); A549 (lung carcinoma); and A172 (glioma) cells. Human skin fibroblast cells (HFF-1) were also assessed. […] 72 hours post-treatment, cell viability was assessed using the Alamar Blue method (http://www.bio-rad-antibodies.com/measuring-cytotoxicity-proliferation-spectrophotometry-fluorescence-alamarBlue.html). […] Conversion of Alamar Blue was measured with a plate reader (SpectraMax M3; Molecular Devices) by fluorescence (excitation wavelength: 555 nm; emission wavelength: 585 nm; cutoff 570 nm; autogain). […]

Salmonella enterica LT2 = experiment: Antibacterial bioassay (MIC), Salmonella enterica; assay type: cell-based; settings: CLSI
Procedure: as §1

U87 (glioblastoma) = experiment: Cytotoxicity profiling (Alamar Blue), U87; assay type: cell-based; settings: Homo sapiens, 72-hour treatment
Procedure: as §2, with “IC50 and Emax values shown in Table 6 were extracted from the raw data plotted in FIG. 8.” left out
as §4

[2] = system: Enterococcus faecalis ATCC 19433; experiment: Antibacterial bioassay (MIC), Enterococcus faecalis; assay type: cell-based; settings: ATCC19433, Mueller-Hinton 2 medium, CLSI, read-out: MIC, Rich medium
Procedure: as §1

[3] = system: Acinetobacter baumannii ATCC 19606; experiment: Antibacterial bioassay (MIC), Acinetobacter baumannii; assay type: cell-based; settings: CLSI
Procedure: as §1

MCF-7 (breast cancer) = experiment: Cytotoxicity profiling (Alamar Blue), MCF-7; assay type: cell-based, human
Procedure: as §2, §3

[4] = system: A-549 (human lung carcinoma); experiment: Cell culture cytotoxicity screening (Alamar Blue), A-549; assay type: cell-based; settings: A549, A-549, Alamar Blue, 72 hours
Procedure: as §2, with “IC50 and Emax values shown in Table 6 were extracted from the raw data plotted in FIG. 8.” left out
as §4

[5] = system: Escherichia coli ATCC 25922; experiment: Antibacterial bioassay (MIC), Escherichia coli ATCC 25922; assay type: cell-based; settings: CLSI
Procedure: as §1

In the case of `O=C(O)/C=C(\C(=O)O)C(O)P(=O)(O)O` (stereo not shown) [pantaphos, 2-(hydroxy(phosphono)methyl)maleate], the MIC ([1]; ATCC29213, Mueller-Hinton 2 medium, read-out: MIC, Rich medium) is reported as greater than 200 µM, the MIC ([1]; ATCC29213, glucose-MOPS minimal medium, read-out: MIC, Minimal medium) is reported as greater than 200 µM and the “sensitivity of the cell line to the compound, in words” value (HepG2 (liver cancer); HepG2) is reported as “sensitive”. It also gave an Emax (HepG2 (liver cancer); Homo sapiens, HepG2, Alamar Blue, 72-hour treatment) of 71 to 77%, an IC50 (HepG2 (liver cancer); Homo sapiens, HepG2, Alamar Blue, 72-hour treatment (Table 6)) of 4.22 ± 0.57 µM and an Emax (D54 (glioblastoma)) of 46 to 58%. The MIC (Salmonella enterica LT2; Mueller-Hinton 2 medium, read-out: MIC, Rich medium) was greater than 200 µM, the MIC (Salmonella enterica LT2; glucose-MOPS minimal medium, read-out: MIC, Minimal medium) was greater than 200 µM and the Emax (U87 (glioblastoma)) was 38 to 48%. For the same compound, the MIC [2] was greater than 200 µM, the MIC ([3]; ATCC19606, Mueller-Hinton 2 medium, read-out: MIC, Rich medium) was greater than 200 µM and the MIC ([3]; ATCC19606, glucose-MOPS minimal medium, read-out: MIC, Minimal medium) was greater than 200 µM. The Emax (MCF-7 (breast cancer); Homo sapiens, MCF7, MCF-7, Alamar Blue, 72-hour treatment) was 90 to 92%, the IC50 (MCF-7 (breast cancer); Homo sapiens, MCF7, MCF-7, Alamar Blue, 72-hour treatment (Table 6)) was 2.88 ± 6.28 µM and the “sensitivity of the cell line to the compound, in words” value (MCF-7 (breast cancer); MCF-7) was “sensitive”. It also gave an IC50 [4] of 14.7 ± 0.61 µM, an Emax ([4]; read-out: Emax = percentage cell death (converted)) of 66% and an MIC ([5]; ATCC25922, Mueller-Hinton 2 medium, read-out: MIC, Rich medium) greater than 200 µM. The MIC ([5]; ATCC25922, glucose-MOPS minimal medium, read-out: MIC, Minimal medium) was greater than 200 µM.

Source: patent publication US20250282802A1, “P[…] AND METHODS” (priority 2020, published 2025)
